# Laboratory results published in patent US20260007681A1, “INDOLE DERIVATIVES AS ESTROGEN RECEPTOR DEGRADERS” (REGENTS OF THE UNIVERSITY OF MICHIGAN, priority 2022, published 2026).
# Read-outs that look alike come from different tables or passages of the source.
# Assays:
# [1] = biological target: ER (Homo sapiens (Human), UniProt P03372); assay: In-cell western blot analysis of relative ER percentage (Compounds B1-B278); assay type: cell-based; settings: ER degradation, 16 hours, read-out: ICW DC50
# Sequence of ER (P03372 whole entry): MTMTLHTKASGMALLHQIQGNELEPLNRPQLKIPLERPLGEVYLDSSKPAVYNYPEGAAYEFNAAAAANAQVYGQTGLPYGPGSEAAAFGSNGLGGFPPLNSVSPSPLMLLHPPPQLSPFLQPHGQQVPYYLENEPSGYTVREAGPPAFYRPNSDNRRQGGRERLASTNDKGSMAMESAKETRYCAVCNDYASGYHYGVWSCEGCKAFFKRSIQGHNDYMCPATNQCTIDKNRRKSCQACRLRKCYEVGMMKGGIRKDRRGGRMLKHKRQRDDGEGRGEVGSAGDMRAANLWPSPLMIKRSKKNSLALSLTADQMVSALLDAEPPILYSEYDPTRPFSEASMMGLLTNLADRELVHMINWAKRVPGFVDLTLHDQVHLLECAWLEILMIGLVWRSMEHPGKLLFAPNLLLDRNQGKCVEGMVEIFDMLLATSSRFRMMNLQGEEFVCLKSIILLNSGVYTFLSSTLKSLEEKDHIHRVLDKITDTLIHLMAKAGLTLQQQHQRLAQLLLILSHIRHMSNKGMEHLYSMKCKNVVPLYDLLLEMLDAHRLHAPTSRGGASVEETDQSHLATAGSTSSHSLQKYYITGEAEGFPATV
# Outline: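 In-cell western: after 16 h compound exposure (0.5% DMSO final), fixed and permeabilized cells are probed with anti-ER plus anti-GAPDH and near-infrared secondaries. Relative ER percentage compares treated wells against untreated and DMSO wells taken as 100%; seeding 40,000 or 10,000 cells/well.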
# [2] = Cell growth assay (WST-8) (Compounds B1-B278); assay type: cell-based; settings: T47D cell line, WST-8, 4 days, read-out: Cell Growth Inhibition in T47D cell line IC50
# Outline: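 Read-out is WST-8 absorbance at 450 nm (2.5 h, 37° C) as a fraction of vehicle control, from three separate repeats. Compound exposure lasted 4 days, starting one day after plating 1500 cells/well.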
SMILES,DC50 [1],IC50 ([2]; 96 h),IC50 [2]
"C[C@@H]1Cc2c([nH]c3ccccc23)[C@@H](c2cnc(N3CCC4(CC3)CC(CN3CCC5(CC3)COc3c5ccc5c3CN(C3CCC(=O)NC3=O)C5=O)C4)nc2)N1CC(F)F (stereo partly drawn) [Compound B262, 3-(1′-((7-(5-((1R,3R)-2-(2,2-difluoroethyl)-3-methyl-2,3,4,9-tetrahydro-1H-pyrido[3,4-b]indol-1-yl)pyrimidin-2-yl)-7-azaspiro[3.5]nonan-2-yl)methyl)-6-oxo-6,8-dihydro-2H,7H-spiro[furo[2,3-e]isoindole-3,4′-piperidin]-7-yl)piperidine-2,6-dione]",10 to 100 nM,< 1 nM,–
"C[C@@H]1Cc2c([nH]c3ccccc23)[C@@H](c2cnc(N3CC4(CCC(CN5CCN6c7ccc8c(c7OC[C@@H]6C5)CN(C5CCC(=O)NC5=O)C8=O)CC4)C3)nc2)N1CC(F)F (stereo partly drawn) [Compound B263, 3-((S)-7-((2-(5-((1R,3R)-2-(2,2-difluoroethyl)-3-methyl-2,3,4,9-tetrahydro-1H-pyrido[3,4-b]indol-1-yl)pyrimidin-2-yl)-2-azaspiro[3.5]nonan-7-yl)methyl)-1-oxo-1,3,5,5a,6,7,8,9-octahydro-2H-pyrazino[1′,2′:4,5][1,4]oxazino[2,3-e]isoindol-2-yl)piperidine-2,6-dione]",10 to 100 nM,1 to 10 nM,–
"C[C@@H]1Cc2c([nH]c3ccccc23)[C@@H](c2cnc(N3CCC4(CC3)CC(CN3CCN5c6ccc7c(c6OC[C@@H]5C3)CN(C3CCC(=O)NC3=O)C7=O)C4)nc2)N1CC(F)F (stereo partly drawn) [Compound B264, 3-((S)-7-((7-(5-((1R,3R)-2-(2,2-difluoroethyl)-3-methyl-2,3,4,9-tetrahydro-1H-pyrido[3,4-b]indol-1-yl)pyrimidin-2-yl)-7-azaspiro[3.5]nonan-2-yl)methyl)-1-oxo-1,3,5,5a,6,7,8,9-octahydro-2H-pyrazino[1′,2′:4,5][1,4]oxazino[2,3-e]isoindol-2-yl)piperidine-2,6-dione]",10 to 100 nM,1 to 10 nM,–
"C[C@@H]1Cc2c([nH]c3ccccc23)[C@@H](c2c(F)cc(N3CCC4(CC3)CC(CN3CCN5c6ccc7c(c6OC[C@H]5C3)CN(C3CCC(=O)NC3=O)C7=O)CO4)cc2F)N1CC(F)(F)CO (stereo partly drawn) [Compound B266, 3-((5aR)-7-((8-(4-((1R,3R)-2-(2,2-difluoro-3-hydroxypropyl)-3-methyl-2,3,4,9-tetrahydro-1H-pyrido[3,4-b]indol-1-yl)-3,5-difluorophenyl)-1-oxa-8-azaspiro[4.5]decan-3-yl)methyl)-1-oxo-1,3,5,5a,6,7,8,9-octahydro-2H-pyrazino[1′,2′:4,5][1,4]oxazino[2,3-e]isoindol-2-yl)piperidine-2,6-dione]",10 to 100 nM,1 to 10 nM,–
"C[C@@H]1CC2c3ccccc3NC2[C@@H](c2c(F)cc(N3CCC4(CC3)CC(CN3CCN5c6cc7c(cc6OC[C@H]5C3)C(=O)N(C3CCC(=O)NC3=O)C7)CO4)cc2F)N1CC(F)(F)CO (stereo partly drawn) [Compound B267, 3-((4aR)-3-((8-(4-((1R,3R)-2-(2,2-difluoro-3-hydroxypropyl)-3-methyl-2,3,4,4a,9,9a-hexahydro-1H-pyrido[3,4-b]indol-1-yl)-3,5-difluorophenyl)-1-oxa-8-azaspiro[4.5]decan-3-yl)methyl)-8-oxo-1,2,3,4,4a,5,8,10-octahydro-9H-pyrazino[1′,2′:4,5][1,4]oxazino[2,3-f]isoindol-9-yl)piperidine-2,6-dione]",> 100 nM,> 10 nM,–
"C[C@@H]1Cc2c([nH]c3ccccc23)[C@@H](c2ccc(N3CCC4(CC3)CC(CN3CCN5c6ccc7c(c6OC[C@H]5C3)CN(C3CCC(=O)NC3=O)C7=O)CO4)cn2)N1CC(F)(F)F (stereo partly drawn) [Compound B268, (3S)-3-((5aR)-7-((8-(6-((1S,3R)-3-methyl-2-(2,2,2-trifluoroethyl)-2,3,4,9-tetrahydro-1H-pyrido[3,4-b]indol-1-yl)pyridin-3-yl)-1-oxa-8-azaspiro[4.5]dccan-3-yl)methyl)-1-oxo-1,3,5,5a,6,7,8,9-octahydro-2H-pyrazino[1′,2′:4,5][1,4]oxazino[2,3-e]isoindol-2-yl)piperidine-2,6-dione]",10 to 100 nM,1 to 10 nM,–
"C[C@@H]1Cc2c([nH]c3ccccc23)[C@@H](c2ccc(N3CCC4(CC3)CC(CN3CCN5c6cc7c(cc6OC[C@@H]5C3)C(=O)N(C3CCC(=O)NC3=O)C7)CO4)cn2)N1CC(F)(F)F (stereo partly drawn) [Compound B269, 3-((4aS)-3-((8-(6-((1S,3R)-3-methyl-2-(2,2,2-trifluoroethyl)-2,3,4,9-tetrahydro-1H-pyrido[3,4-b]indol-1-yl)pyridin-3-yl)-1-oxa-8-azaspiro[4.5]decan-3-yl)methyl)-8-oxo-1,2,3,4,4a,5,8,10-octahydro-9H-pyrazino[1′,2′:4,5][1,4]oxazino[2,3-f]isoindol-9-yl)piperidine-2,6-dione]",10 to 100 nM,–,1 to 10 nM
"C[C@@H]1Cc2c([nH]c3ccccc23)[C@@H](c2c(F)cc(N3CCC4(CC3)OCC(CN3CCN5c6cc7c(cc6OC[C@@H]5C3)C(=O)N(C3CCC(=O)NC3=O)C7)CO4)cc2F)N1CC(F)(F)CO (stereo partly drawn) [Compound B270, 3-((S)-3-((9-(4-((1R,3R)-2-(2,2-difluoro-3-hydroxypropyl)-3-methyl-2,3,4,9-tetrahydro-1H-pyrido[3,4-b]indol-1-yl)-3,5-difluorophenyl)-1,5-dioxa-9-azaspiro[5.5]undecan-3-yl)methyl)-8-oxo-1,2,3,4,4a,5,8,10-octahydro-9H-pyrazino[1′,2′:4,5][1,4]oxazino[2,3-f]isoindol-9-yl)piperidine-2,6-dione]",10 to 100 nM,< 1 nM,–
"COc1cc(N2CCC3(CC2)OCC(CN2CCN4c5ccc6c(c5OC[C@@H]4C2)CN([C@@H]2CCC(=O)NC2=O)C6=O)CO3)ccc1[C@@H]1c2[nH]c3ccccc3c2C[C@@H](C)N1CC(F)F [Compound B271, (R)-3-((S)-7-((9-(4-((1R,3R)-2-(2,2-difluoroethyl)-3-methyl-2,3,4,9-tetrahydro-1H-pyrido[3,4-b]indol-1-yl)-3-methoxyphenyl)-1,5-dioxa-9-azaspiro[5.5]undecan-3-yl)methyl)-1-oxo-1,3,5,5a,6,7,8,9-octahydro-2H-pyrazino[1′,2′:4,5][1,4]oxazino[2,3-e]isoindol-2-yl)piperidine-2,6-dione]",10 to 100 nM,< 1 nM,–
"C[C@@H]1Cc2c([nH]c3ccccc23)[C@@H](c2cnc(N3CCC4(CC3)OCC(CN3CCN5c6ccc7c(c6OC[C@H]5C3)CN([C@H]3CCC(=O)NC3=O)C7=O)CO4)nc2)N1CC(F)(F)CO [Compound B272, (S)-3-((R)-7-((9-(5-((1R,3R)-2-(2,2-difluoro-3-hydroxypropyl)-3-methyl-2,3,4,9-tetrahydro-1H-pyrido[3,4-b]indol-1-yl)pyrimidin-2-yl)-1,5-dioxa-9-azaspiro[5.5]undecan-3-yl)methyl)-1-oxo-1,3,5,5a,6,7,8,9-octahydro-2H-pyrazino[1′,2′:4,5][1,4]oxazino[2,3-e]isoindol-2-yl)piperidine-2,6-dione]",10 to 100 nM,< 1 nM,–
"COc1cc(N2CCC3(CC2)OCC(CN2CCN4c5cc6c(cc5OC[C@H]4C2)C(=O)N(C2CCC(=O)NC2=O)C6)CO3)ccc1[C@@H]1c2[nH]c3ccccc3c2C[C@@H](C)N1CC(F)F (stereo partly drawn) [Compound B273, 3-((R)-3-((9-(4-((1R,3R)-2-(2,2-difluoroethyl)-3-methyl-2,3,4,9-tetrahydro-1H-pyrido[3,4-b]indol-1-yl)-3-methoxyphenyl)-1,5-dioxa-9-azaspiro [5.5]undecan-3-yl)methyl)-8-oxo-1,2,3,4,4a,5,8,10-octahydro-9H-pyrazino[1′,2′:4,5][1,4]oxazino[2,3-f]isoindol-9-yl)piperidine-2,6-dione]",10 to 100 nM,1 to 10 nM,–
"COc1cc(N2CCC3(CC2)OCC(CN2CCC4(CC2)COc2c4ccc4c2CN(C2CCC(=O)NC2=O)C4=O)CO3)ccc1[C@@H]1c2[nH]c3ccccc3c2C[C@@H](C)N1CC(F)F (stereo partly drawn) [Compound B274, 3-(1′-((9-(4-((1R,3R)-2-(2,2-difluoroethyl)-3-methyl-2,3,4,9-tetrahydro-1H-pyrido[3,4-b]indol-1-yl)-3-methoxyphenyl)-1,5-dioxa-9-azaspiro[5.5]undecan-3-yl)methyl)-6-oxo-6,8-dihydro-2H,7H-spiro[furo[2,3-e]isoindole-3,4′-piperidin]-7-yl)piperidine-2,6-dione]",10 to 100 nM,< 1 nM,–
"C[C@@H]1Cc2c([nH]c3ccccc23)[C@@H](c2cnc(N3CC4(C3)OCC(CN3CCN5c6ccc7c(c6OC[C@H]5C3)CN([C@H]3CCC(=O)NC3=O)C7=O)CO4)nc2)N1CC(F)(F)CO [Compound B275, (S)-3-((R)-7-((2-(5-((1R,3R)-2-(2,2-difluoro-3-hydroxypropyl)-3-methyl-2,3,4,9-tetrahydro-1H-pyrido[3,4-b]indol-1-yl)pyrimidin-2-yl)-5,9-dioxa-2-azaspiro[3.5]nonan-7-yl)methyl)-1-oxo-1,3,5,5a,6,7,8,9-octahydro-2H-pyrazino[1′,2′:4,5][1,4]oxazino[2,3-e]isoindol-2-yl)piperidine-2,6-dione]",> 100 nM,> 10 nM,–
"C[C@@H]1Cc2c([nH]c3ccccc23)[C@@H](c2cnc(N3CC4(C3)OCC(CN3CCN5c6cc7c(cc6OC[C@@H]5C3)C(=O)N(C3CCC(=O)NC3=O)C7)CO4)nc2)N1CC(F)(F)CO (stereo partly drawn) [Compound B276, 3-((S)-3-((2-(5-((1R,3R)-2-(2,2-difluoro-3-hydroxypropyl)-3-methyl-2,3,4,9-tetrahydro-1H-pyrido[3,4-b]indol-1-yl)pyrimidin-2-yl)-5,9-dioxa-2-azaspiro[3.5]nonan-7-yl)methyl)-8-oxo-1,2,3,4,4a,5,8,10-octahydro-9H-pyrazino[1′,2′:4,5][1,4]oxazino[2,3-f]isoindol-9-yl)piperidine-2,6-dione]",> 100 nM,> 10 nM,–
